Measurements published in patent US11124481B2 (Exelixis, Inc., priority 2014, dated 2021).

Tests used:
U87 tumor cells = test: dynamic PET imaging in mice with orthotopically implanted U87 tumor cells; format: in vivo, athymic BALB/C mice
Method: Rodent imaging experiments were performed on a dedicated small animal microPET® F120™ scanner (Siemens Preclinical Solutions, Knoxville, Tenn.). Both static and dynamic PET imaging studies were conducted on athymic BALB/C mice (Harlan) and stereotactically implanted U87 tumor cells. The mice were administered about 6.4-7.4 MBq (0.17-0.2 mCi) of [^18F]-Cabozantinib via the tail vein. The mice were anesthetized (2% isofluorane in O2 at a flow rate of 1 mL/min) during tracer injection and throughout the imaging period. After injection, each mouse was laid in the microPET scanner. A 10 minutes transmission scan was acquired using a ^57Co point source prior to either the 2 hour dynamic scan or the 45 min static scan starting at about 15 minutes after injection. Mice were visually monitored for breathing, and a heating pad was used to maintain body temperature throughout the entire procedure. […] Data were analyzed by manually drawing standardized volumes of interest using the Siemens ASIPro VM software package version 6.6. […]
FIG. 3 depicts Positron Emission Tomography (PET) images of mice injected with [^18F]-Cabozantinib. […] A tumor:brain ratio, which is the ratio of the amount of [^18F]-Cabozantinib in the tumor compared to the amount of [^18F]-Cabozantinib in the brain in non-tumor regions, of 2.6 to 2.8 was measured for U87 stereotactically implanted tumor cells. […]

[1] = dynamic PET imaging in tumor-free control mice; format: in vivo, athymic BALB/C mice
Method: Rodent imaging experiments were performed on a dedicated small animal microPET® F120™ scanner (Siemens Preclinical Solutions, Knoxville, Tenn.). Both static and dynamic PET imaging studies were conducted on athymic BALB/C mice (Harlan) and stereotactically implanted U87 tumor cells. The mice were administered about 6.4-7.4 MBq (0.17-0.2 mCi) of [^18F]-Cabozantinib via the tail vein. The mice were anesthetized (2% isofluorane in O2 at a flow rate of 1 mL/min) during tracer injection and throughout the imaging period. After injection, each mouse was laid in the microPET scanner. A 10 minutes transmission scan was acquired using a ^57Co point source prior to either the 2 hour dynamic scan or the 45 min static scan starting at about 15 minutes after injection. Mice were visually monitored for breathing, and a heating pad was used to maintain body temperature throughout the entire procedure. PET data were reconstructed using an OSEM 2D algorithm into a 128×128×95 image matrix (resulting in final voxel dimensions of 0.79×0.79×0.8 mm). Dead time, decay correction, attenuation correction, and normalization were applied to all PET data. Data were analyzed by manually drawing standardized volumes of interest using the Siemens ASIPro VM software package version 6.6. […]

[2] = biodistribution in mice with subcutaneous U87 tumor cells (gamma counter); format: in vivo, athymic BALB/C mice
Method: . After acute sedation with isofluorane (2%) animals were sacrificed by decapitation at 15 and 60 min following tracer injection. Blood samples were collected and portions of the liver, kidneys, heart, lungs, muscles, stomach, large intestine, small intestine, bladder, spleen, brain and femur were dissected and weighed. Radioactivity of each sample was measured using a gamma counter (1480 Wizard™ 3 Automatic Gamma Counter, PerkinElmer). Decay-corrected radioactivity concentrations were calculated as percentage of injected dose per gram tissue (% ID/g).

[3] = radiometabolite analysis in mouse plasma (radio-TLC)

## COc1cc2nccc(Oc3ccc(NC(=O)C4(C(=O)Nc5ccc([18F])cc5)CC4)cc3)c2cc1OC [[^18F]-Cabozantinib, cyclopropane-1,1-dicarboxylic acid [4-(6,7-dimethoxy-quinolin-4-yloxy)-phenyl]-amide(4-[^18F]-fluoro-phenyl)amide]
U87 tumor cells; orthotopically implanted U87 mice, n=3
  SUV mean, tumor uptake: 0.50
U87 tumor cells; time activity curves over 2 hour period
  time of maximal tumor uptake post injection: 60 min
[1]; tumor-free control mice, summed PET images
  SUV mean, uptake in the brain: 0.19
[1]; tumor-free mice, PET
  crossing of the blood brain barrier: does not cross the blood brain barrier
[2]; 15 minutes post injection, n=6
  tracer uptake blood: 1.8±0.2 % ID/g
  tracer uptake brain: 0.9±0.2 % ID/g
  tracer uptake femur: 2.9±1.0 % ID/g
  tracer uptake heart: 12.9±3.2 % ID/g
  tracer uptake kidneys: 14.2±3.0 % ID/g
  tracer uptake large intestines: 4.7±2.1 % ID/g
  tracer uptake liver: 14.4±3.1 % ID/g
  tracer uptake lungs: 6.5±1.1 % ID/g
  tracer uptake muscles: 4.4±1.1 % ID/g
  tracer uptake small intestines: 7.0±2.4 % ID/g
  tracer uptake spleen: 4.7±1.2 % ID/g
  tracer uptake stomach: 5.2±1.7 % ID/g
[2]; 60 minutes post injection, n=6
  tracer uptake bladder: 4.3±1.2 % ID/g
  tracer uptake blood: 2.2±0.3 % ID/g
  tracer uptake brain: 0.9±0.1 % ID/g
  tracer uptake femur: 1.8±0.8 % ID/g
  tracer uptake heart: 9.5±1.5 % ID/g
  tracer uptake kidneys: 11.7±1.5 % ID/g
  tracer uptake large intestines: 4.6±0.9 % ID/g
  tracer uptake liver: 14.0±1.9 % ID/g
  tracer uptake lungs: 4.9±0.8 % ID/g
  tracer uptake muscles: 4.2±0.3 % ID/g
  tracer uptake small intestines: 10.7±1.1 % ID/g
  tracer uptake spleen: 3.6±0.6 % ID/g
  tracer uptake stomach: 8.4±1.5 % ID/g
[2]; biodistribution, 15 and 60 minutes
  crossing of the blood brain barrier: did not appear to cross the blood brain barrier
[3]
  radiometabolites seen in plasma: Only one radiometabolite
[3]; 15 and 60 minutes after injection
  tracer remaining intact in plasma: over 80%
